The values that follow come from patent US10471046B2, “Method for treating, preventing, or reducing the risk of skin infection” (Melinta Subsidiary Corp., priority 2014, dated 2019).

The assay relates to S. aureus. Kind of assay: Minimum inhibitory concentrations (MICs) for S. aureus of exemplary compounds (Table 2). The assay is classed as cell-based. The settings on record: Staphylococcus aureus, minimum inhibitory concentrations for S. aureus; read-out: MICs. The procedure, abridged:
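MICs (μg/mL) against S. aureus come from microtiter-tray dilution susceptibility testing per NCCLS M7-A5, comparing growth with and without compound.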

≈ marks a conversion by molar mass, not a printed value.

Regarding `CC(=O)NC[C@H]1CN(c2ccc(-c3ccc(CNCCCc4cnn[nH]4)cc3)c(F)c2)C(=O)O1` [Compound 4258, N-[3-(2-Fluoro-4′-{[3-(3H-[1,2,3]triazol-4-yl)-propylamino]-methyl}-biphenyl-4-yl)-2-oxo-oxazolidin-5-(S)-ylmethyl]-acetamide], the MIC stood at 4 µg/mL (≈ 8.57 µM).

As for `CC(=O)NC[C@H]1CN(c2ccc(-c3ccc(CNCCN4CCCC4)cc3)c(F)c2)C(=O)O1` [Compound 4259, N-(3-{2-Fluoro-4′-[(2-pyrrolidin-1-yl-ethylamino)-methyl]-biphenyl-4-yl}-2-oxo-oxazolidin-5-(S)-ylmethyl)-acetamide], the MIC turned out to be 4 µg/mL (≈ 8.8 µM).

Consider `CC(=O)NC[C@H]1CN(c2ccc(-c3ccc(CNCCn4ccnn4)cc3)c(F)c2)C(=O)O1` [Compound 4262, N-(3-{2-Fluoro-4′-[(2-[1,2,3]triazol-1-yl-ethylamino)-methyl]-biphenyl-4-yl}-2-oxo-oxazolidin-5-(S)-ylmethyl)-acetamide], for which the MIC amounted to 2 µg/mL (≈ 4.42 µM).

With `CC(=O)NC[C@H]1CN(c2ccc(-c3ccc(CNOCc4ccccc4)cc3)c(F)c2)C(=O)O1` [Compound 4263, N-{3-[4′-(Benzyloxyamino-methyl)-2-fluoro-biphenyl-4-yl]-2-oxo-oxazolidin-5-(S)-ylmethyl}-acetamide], the MIC stood at 2 µg/mL (≈ 4.31 µM).

As to `CC(=O)NC[C@H]1CN(c2ccc(-c3ccc(CNCCCn4ccnn4)cc3)c(F)c2)C(=O)O1` [Compound 4264, N-(3-{2-Fluoro-4′-[(3-[1,2,3]triazol-1-yl-propylamino)-methyl]-biphenyl-4-yl}-2-oxo-oxazolidin-5-(S)-ylmethyl)-acetamide], the MIC turned out to be 4 µg/mL (≈ 8.57 µM).

On to `CC(=O)NC[C@H]1CN(c2ccc(-c3ccc(CN(CCCF)OCc4ccccc4)cc3)c(F)c2)C(=O)O1` [Compound 4265, N-[3-(4′-{[Benzyloxy-(3-fluoro-propyl)-amino]-methyl}-2-fluoro-biphenyl-4-yl)-2-oxo-oxazolidin-5-(S)-ylmethyl]-acetamide], for which the MIC turned out to be 4 µg/mL (≈ 7.64 µM).

Consider `CC(=O)NC[C@H]1CN(c2ccc(-c3ccc(CNCCc4cnn[nH]4)cc3)c(F)c2)C(=O)O1` [Compound 4266, N-[3-(2-Fluoro-4′-{[2-(3H-[1,2,3]triazol-4-yl)-ethylamino]-methyl}-biphenyl-4-yl)-2-oxo-oxazolidin-5-(S)-ylmethyl]-acetamide], for which the MIC came out at 4 µg/mL (≈ 8.84 µM).

As for `CC(=O)NC[C@H]1CN(c2ccc(-c3ccc(CNCc4cnn[nH]4)cc3)c(F)c2)C(=O)O1` [Compound 4267, N-[3-(2-Fluoro-4′-{[(3H-[1,2,3]triazol-4-ylmethyl)-amino]-methyl}-biphenyl-4-yl)-2-oxo-oxazolidin-5-(S)-ylmethyl]-acetamide], the MIC was found to be 0.25 µg/mL (≈ 0.57 µM).

In the case of `O=C1O[C@@H](Cn2ccnn2)CN1c1ccc(-c2ccc(CNCc3cnn[nH]3)cc2)c(F)c1` [Compound 4268, 3-(2-Fluoro-4′-{[(3H-[1,2,3]triazol-4-ylmethyl)-amino]-methyl}-biphenyl-4-yl)-5-(R)-[1,2,3]triazol-1-ylmethyl-oxazolidin-2-one], the MIC is 0.25 µg/mL (≈ 0.557 µM).

On to `CC(=O)NC[C@H]1CN(c2ccc(-c3ccc(CNCc4[nH]nnc4C)cc3)c(F)c2)C(=O)O1` [Compound 4269, N-[3-(2-Fluoro-4′-{[(5-methyl-3H-[1,2,3]triazol-4-ylmethyl)-amino]-methyl}-biphenyl-4-yl)-2-oxo-oxazolidin-5-(S)-ylmethyl]-acetamide], for which the MIC was 2 µg/mL (≈ 4.42 µM).

Turning to `CC(=O)NC[C@H]1CN(c2ccc(-c3ccc(CN(Cc4[nH]nnc4C)Cc4[nH]nnc4C)cc3)c(F)c2)C(=O)O1` [Compound 4270, N-[3-(4′-{[Bis-(5-methyl-3H-[1,2,3]triazol-4-ylmethyl)-amino]-methyl}-2-fluoro-biphenyl-4-yl)-2-oxo-oxazolidin-5-(S)-ylmethyl]-acetamide], the MIC turned out to be 4 µg/mL (≈ 7.3 µM).

In the case of `CC(=O)NC[C@H]1CN(c2ccc(-c3ccc(CNNC(=O)c4snnc4C)cc3)c(F)c2)C(=O)O1` [Compound 4271, N-(3-{2-Fluoro-4′-[N′-(4-methyl-[1,2,3]thiadiazole-carbonyl)-hydrazinomethyl]-biphenyl-4-yl}-2-oxo-oxazolidin-5-(S)-ylmethyl)-acetamide], the MIC came to 0.25 µg/mL (≈ 0.501 µM).

On to `CC(=O)NC[C@H]1CN(c2ccc(-c3ccc(CNCc4cnnn4C)cc3)c(F)c2)C(=O)O1` [Compound 4272, N-[3-(2-Fluoro-4′-{[(3-methyl-3H-[1,2,3]triazol-4-ylmethyl)-amino]-methyl}-biphenyl-4-yl)-2-oxo-oxazolidin-5-(S)-ylmethyl]-acetamide], for which the MIC was 0.25 µg/mL (≈ 0.552 µM).

As to `CC(=O)NC[C@H]1CN(c2ccc(-c3ccc(CNCC(CF)n4ccnn4)cc3)c(F)c2)C(=O)O1` (stereo partly drawn) [Compound 4274, N-(3-{2-Fluoro-4′-[(3-fluoro-2-[1,2,3]triazol-1-yl-propylamino)-methyl]-biphenyl-4-yl}-2-oxo-oxazolidin-5-(S)-ylmethyl)-acetamide], the MIC came to 2 µg/mL (≈ 4.13 µM).

On to `CC(=O)NC[C@H]1CN(c2ccc(-c3ccc(CN(C)Cc4cnn[nH]4)cc3)c(F)c2)C(=O)O1` [Compound 4276, N-[3-(2-Fluoro-4′-{[methyl-(3H-[1,2,3]triazol-4-ylmethyl)-amino]-methyl}-biphenyl-4-yl)-2-oxo-oxazolidin-5-(S)-ylmethyl]-acetamide], for which the MIC worked out at 0.25 µg/mL (≈ 0.552 µM).

Regarding `CC(=O)NC[C@H]1CN(c2ccc(-c3ccc(CNCc4cnn[nH]4)nc3)c(F)c2)C(=O)O1` [Compound 4277, N-{3-[3-Fluoro-4-(6-{[(3H-[1,2,3]triazol-4-ylmethyl)-amino]-methyl}-pyridin-3-yl)-phenyl]-2-oxo-oxazolidin-5-(S)-ylmethyl}-acetamide], the MIC came out at 4 µg/mL (≈ 9.1 µM).

In the case of `CC(=O)NC[C@H]1CN(c2ccc(-c3ccc(CN(Cc4nnnn4C)C(=O)OC(C)(C)C)cc3)c(F)c2)C(=O)O1` [Compound 4280, {4′-[5-(S)-(Acetylamino-methyl)-2-oxo-oxazolidin-3-yl]-2′-fluorobiphenyl-4-ylmethyl}-(1-methyl-1H-tetrazol-5-ylmethyl)-carbamic acid tert-butyl ester], the MIC was 1 µg/mL (≈ 1.81 µM).

As for `CC(=O)NC[C@H]1CN(c2ccc(-c3ccc(CN(Cc4nnn(C)n4)C(=O)OC(C)(C)C)cc3)c(F)c2)C(=O)O1` [Compound 4281, {4′-[5-(S)-(Acetylamino-methyl)-2-oxo-oxazolidin-3-yl]-2′-fluoro-biphenyl-4-ylmethyl}-(2-methyl-2H-tetrazol-5-ylmethyl)-carbamic acid tert-butyl ester], the MIC was 2 µg/mL (≈ 3.61 µM).

For `CC(=O)NC[C@H]1CN(c2ccc(-c3ccc(CNCc4nnn[nH]4)cc3)c(F)c2)C(=O)O1` [Compound 4282, N-[3-(2-Fluoro-4′-{[(1H-tetrazol-5-ylmethyl)-amino]-methyl}-biphenyl-4-yl)-2-oxo-oxazolidin-5-(S)-ylmethyl]-acetamide], the MIC is 16 µg/mL (≈ 36.4 µM).

For the compound `CC(=O)NC[C@H]1CN(c2ccc(-c3ccc(CNCc4nnnn4C)cc3)c(F)c2)C(=O)O1` [Compound 4283, N-[3-(2-Fluoro-4′-{[(1-methyl-1H-tetrazol-5-ylmethyl)-amino]-methyl}-biphenyl-4-yl)-2-oxo-oxazolidin-5-(S)-ylmethyl]-acetamide], the MIC came to 0.25 µg/mL (≈ 0.551 µM).

For the compound `CC(=O)NC[C@H]1CN(c2ccc(-c3ccc(CNCc4nnn(C)n4)cc3)c(F)c2)C(=O)O1` [Compound 4284, N-[3-(2-Fluoro-4′-{[(2-methyl-2H-tetrazol-5-ylmethyl)-amino]-methyl}-biphenyl-4-yl)-2-oxo-oxazolidin-5-(S)-ylmethyl]-acetamide], the MIC was 0.25 µg/mL (≈ 0.551 µM).

Turning to `CC(=O)NC[C@H]1CN(c2ccc(-c3ccc(CN/C(=N\O)c4ccncc4)cc3)c(F)c2)C(=O)O1` [Compound 4285, N-[3-(2-Fluoro-4′-{[(N-hydroxy-pyridine-4-carboximidoyl)-amino]-methyl}-biphenyl-4-yl)-2-oxo-oxazolidin-5-(S)-ylmethyl]-acetamide], the MIC turned out to be 8 µg/mL (≈ 16.8 µM).

For the compound `CC(=O)NC[C@H]1CN(c2ccc(-c3ccc([C@H](O)CN(CCS(C)(=O)=O)Cc4ccccc4)cc3)c(F)c2)C(=O)O1` [Compound 4286, N-[3-(4′-{2-[Benzyl-(2-methanesulfonyl-ethyl)-amino]-1-(S)-hydroxy-ethyl}-2-fluoro-biphenyl-4-yl)-2-oxo-oxazolidin-5-(S)-ylmethyl]-acetamide], the MIC turned out to be 2 µg/mL (≈ 3.43 µM).

Regarding `CC(=O)NC[C@H]1CN(c2ccc(-c3ccc(CNC(=O)C4CCC(=O)N4)cc3)c(F)c2)C(=O)O1` (stereo partly drawn) [Compound 4289, 5-Oxo-pyrrolidine-2-carboxylic acid {4′-[5-(S)-(acetylamino-methyl)-2-oxo-oxazolidin-3-yl]-2′-fluoro-biphenyl-4-ylmethyl}-amide], the MIC worked out at 8 µg/mL (≈ 17.1 µM).

As to `CC(=O)NC[C@H]1CN(c2ccc(-c3ccc(CNC(=O)C4CN(C(=O)OC(C)(C)C)C4)cc3)c(F)c2)C(=O)O1` [Compound 4290, 3-({4′-[5-(S)-(Acetylamino-methyl)-2-oxo-oxazolidin-3-yl]-2′-fluoro-biphenyl-4-ylmethyl}-carbamoyl)-azetidine-1-carboxylic acid tert-butyl ester], the MIC turned out to be 16 µg/mL (≈ 29.6 µM).

In the case of `CC(=O)NC[C@H]1CN(c2ccc(-c3ccc(CNC(=O)C4CNC4)cc3)c(F)c2)C(=O)O1` [Compound 4291, Azetidine-3-carboxylic acid {4′-[5-(S)-(acetylamino-methyl)-2-oxo-oxazolidin-3-yl]-2′-fluoro-biphenyl-4-ylmethyl}-amide], the MIC turned out to be 8 µg/mL (≈ 18.2 µM).

Regarding `CC(=O)NC[C@H]1CN(c2ccc(-c3ccc(CNC(=O)[C@H](N)Cc4cnc[nH]4)cc3)c(F)c2)C(=O)O1` [Compound 4292, N-{4′-[5-(S)-(Acetylamino-methyl)-2-oxo-oxazolidin-3-yl]-2′-fluoro-biphenyl-4-ylmethyl}-2-(R)-amino-3-(3H-imidazol-4-yl)-propionamide], the MIC was found to be 16 µg/mL (≈ 32.4 µM).

`CC(=O)NC[C@H]1CN(c2ccc(-c3ccc(CNC(C(N)=O)c4cccnc4)cc3)c(F)c2)C(=O)O1` (stereo partly drawn) [Compound 4293, 2-({4′-[5-(S)-(Acetylamino-methyl)-2-oxo-oxazolidin-3-yl]-2′-fluoro-biphenyl-4-ylmethyl}-amino)-2-pyridin-3-yl-acetamide]: the MIC came out at 4 µg/mL (≈ 8.14 µM).
